Results from patent US11478471B2, “Methods and compositions for treating diabetes, metabolic syndrome and other conditions” (priority 2005, dated 2022).
≈ marks a conversion by molar mass, not a printed value. Entries after “also recorded” stand apart in the source; their conditions may differ. Where two headings read alike, the source gives them in different places.

Legend:
plasma corticosterone = assay: Plasma corticosterone in rats after oral dosing (ELISA); format: in vivo, Sprague Dawley rats; conditions: for effect on plasma corticosterone (FIG. 1): 200 mg/kg oral, vs vehicle; for Corticosteroid Levels (mean ± SEM): 4 h after gavage
Method: To generate the results shown in FIG. 1, five groups (eight per group) of rats were used. The rats were maintained on a 14/10 hour light/dark cycle and allowed free access to food and water. Each rat was dosed (200 mg drug/kg body weight) via a gastric tube. […] All of the rats were dosed between 2.00 and 3.00 pm and were sacrificed four hours later (between 6.00 and 7.00 pm). Plasma was prepared and the concentration of corticosterone determined by an enzyme linked immuno assay (ELISA). In rats, the predominant active glucocorticoid is corticosterone; in humans, the predominant active glucucorticoid is the closely related molecule cortisol.
The rats were maintained and dosed as described above. Plasma was prepared and the concentration of corticosterone in the plasma determined by ELISA.
(§1) The rats were maintained as described above; the drugs were suspended in olive oil, and each rat was dosed once via gastric tube to achieve a dose of 200 mg/kg. All of the rats were dosed at a specific time so that all terminations occurred between 6 and 7 pm. […] Following sacrifice, plasma was prepared, and the concentration of corticosterone in the plasma was determined by ELISA. In the same plasma samples, total cholesterol levels were also determined.
In the Table, corticosterone levels (mean±SEM; ng/mL) were determined four hours after oral gavage of the indicated drug (N=10/group). There was a single control group (dosed with vehicle).
Corticosterone levels (mean±SEM; ng/mL) were determined at the indicated times after oral gavage of the indicated drug at 200 mg/kg. […] The means of the vehicle treated groups are used as the time zero control point.

succinate dehydrogenase = molecular target: T1, succinate dehydrogenase (Rattus norvegicus, UniProt Q920L2); conditions: read-out: in vitro IC50, succinate dehydrogenase; cited from earlier work
T1 construct: host or cells: isolated rat liver mitochondria (from the cited title)
T1 sequence (Q920L2 35-656): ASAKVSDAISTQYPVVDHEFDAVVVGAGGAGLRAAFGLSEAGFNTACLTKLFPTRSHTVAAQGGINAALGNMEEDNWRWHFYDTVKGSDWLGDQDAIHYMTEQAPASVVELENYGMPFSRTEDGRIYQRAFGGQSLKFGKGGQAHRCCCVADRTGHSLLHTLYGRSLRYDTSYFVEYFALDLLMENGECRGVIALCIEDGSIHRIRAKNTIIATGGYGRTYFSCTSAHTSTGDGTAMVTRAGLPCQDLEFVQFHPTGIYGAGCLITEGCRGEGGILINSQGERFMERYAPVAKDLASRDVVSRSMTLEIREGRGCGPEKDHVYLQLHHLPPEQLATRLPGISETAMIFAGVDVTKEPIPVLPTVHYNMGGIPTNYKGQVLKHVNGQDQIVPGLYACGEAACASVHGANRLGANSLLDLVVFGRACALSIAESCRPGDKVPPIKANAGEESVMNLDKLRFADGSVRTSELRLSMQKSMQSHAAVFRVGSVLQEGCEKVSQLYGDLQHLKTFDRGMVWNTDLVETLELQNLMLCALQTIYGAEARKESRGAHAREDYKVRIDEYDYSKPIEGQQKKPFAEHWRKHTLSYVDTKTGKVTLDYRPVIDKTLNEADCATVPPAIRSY
T1 sequence (P21913 31-282 partner): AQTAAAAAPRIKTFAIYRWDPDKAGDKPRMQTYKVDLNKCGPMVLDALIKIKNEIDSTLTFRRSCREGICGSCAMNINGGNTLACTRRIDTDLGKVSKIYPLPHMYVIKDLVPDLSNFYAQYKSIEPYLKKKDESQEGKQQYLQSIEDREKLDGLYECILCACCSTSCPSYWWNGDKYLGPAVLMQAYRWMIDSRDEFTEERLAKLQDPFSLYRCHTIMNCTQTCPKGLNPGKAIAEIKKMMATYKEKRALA
T1 sequence (Q641Z9 30-169 partner limits assumed): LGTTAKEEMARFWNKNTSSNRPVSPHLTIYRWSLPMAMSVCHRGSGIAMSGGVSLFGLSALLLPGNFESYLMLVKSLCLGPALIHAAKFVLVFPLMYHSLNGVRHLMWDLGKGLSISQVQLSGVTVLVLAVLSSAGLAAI
T1 sequence (Q6PCT8 57-159 partner): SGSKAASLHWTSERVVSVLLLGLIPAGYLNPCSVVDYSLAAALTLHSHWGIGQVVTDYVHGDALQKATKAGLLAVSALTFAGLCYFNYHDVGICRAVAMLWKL

Candida tropicalis = assay: Antifungal MIC; format: cell-based
P450 3A = conditions: read-out: IC50, progesterone 6β hydroxylase (3A); Rotstein et al. 1992; cited from earlier work
Candida kefyr = assay: Antifungal MIC; format: cell-based; conditions: Kluyveromyces marxianus, DSM11954; DSM strain 11954, 48 h
[1] = tested on: P450 2B1, 2B2, 1A1, 2C11, 3A; conditions: read-out: IC50, progesterone 16α hydroxylase (2B1, 2B2, 1A1, 2C11, 3A); Rotstein et al. 1992; cited from earlier work
testosterone levels = assay: Testosterone levels in rats after oral dosing; format: in vivo, Sprague Dawley rats; conditions: for Testosterone levels (mean ± SEM): 4 h after gavage
Description: There was a single control group (dosed with vehicle).
The means of the vehicle treated groups are used as the time zero control point.

Candida albicans = assay: Antifungal MIC; format: cell-based; conditions: read-out: MIC
P450 4A = conditions: read-out: IC50, lauric acid hydroxylase (4A); Rotstein et al. 1992; cited from earlier work
Candida glabrata = assay: Antifungal MIC; format: cell-based; conditions: Nakaseomyces glabratus, read-out: MIC
P450 2C6 = P450 2C6 (Rattus norvegicus, UniProt P05178); conditions: Rotstein et al. 1992; read-out: IC50, progesterone 21 hydroxylase (2C6); cited from earlier work
P450 2C6, sequence (P05178 whole entry): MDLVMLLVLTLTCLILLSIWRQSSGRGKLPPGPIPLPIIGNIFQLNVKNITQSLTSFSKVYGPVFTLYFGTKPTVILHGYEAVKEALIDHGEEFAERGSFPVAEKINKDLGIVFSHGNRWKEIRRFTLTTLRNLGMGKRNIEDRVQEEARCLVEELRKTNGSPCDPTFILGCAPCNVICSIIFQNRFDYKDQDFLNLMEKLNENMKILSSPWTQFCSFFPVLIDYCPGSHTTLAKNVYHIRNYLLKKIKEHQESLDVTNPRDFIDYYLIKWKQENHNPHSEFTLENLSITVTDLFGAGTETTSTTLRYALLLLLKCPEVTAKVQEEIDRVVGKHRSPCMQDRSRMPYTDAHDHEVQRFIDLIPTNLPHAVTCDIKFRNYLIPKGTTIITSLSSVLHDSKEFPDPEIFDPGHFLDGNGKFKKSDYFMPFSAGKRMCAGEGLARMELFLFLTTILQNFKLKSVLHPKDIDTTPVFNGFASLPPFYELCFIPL

[2] = humans, cited from earlier work
Cryptococcus neoformans = assay: Antifungal MIC; format: cell-based
[3] = tested on: CYP7A (cholesterol 7α hydroxylase); assay: Inhibition of CYP7A, cholesterol 7α-hydroxylase activity (Rotstein et al. 1992); conditions: assuming intrahepatic concentration approximately 20% of total plasma concentration; listed as 2R,4S enantiomer
Candida parapsilosis = assay: Antifungal MIC; format: cell-based; conditions: Lodderomyces parapsilosis, read-out: MIC
Issatchenkia orientalis = assay: Antifungal MIC; format: cell-based; conditions: Pichia kudriavzevii, read-out: MIC
Saccharomyces cerevisiae = assay: Antifungal MIC; format: cell-based; conditions: DSM01333, DSM strain 01333, 48 h
cholesterol levels = assay: Cholesterol levels in rats after oral dosing; format: in vivo, Sprague Dawley rats; conditions: single oral 200 mg/kg
Method: as §1

Candida guilliermondii = assay: Antifungal MIC; format: cell-based; conditions: Meyerozyma guilliermondii, DSM11947; DSM strain 11947, 48 h
[4] = following fifth 200 mg dose of racemic ketoconazole (every twelve hours)
[5] = following first 200 mg dose of racemic ketoconazole

For `CC(=O)N1CCN(c2ccc(OCC3COC(Cn4ccnc4)(c4ccc(Cl)cc4Cl)O3)cc2)CC1` (stereo not drawn) [2S45], the “effect on plasma corticosterone (FIG. 1)” value (plasma corticosterone; 4 h) was “little effect”.
For `Clc1ccc(C2(Cn3ccnc3)OCC(COc3ccc(N4CCNCC4)cc3)O2)c(Cl)c1` (stereo not drawn) [DAK, deacetylated ketoconazole], the IC50 (succinate dehydrogenase) is listed as 350 µM.
In the case of `CC(=O)N1CCN(c2ccc(OC[C@H]3CO[C@](Cn4ccnc4)(c4ccc(Cl)cc4Cl)O3)cc2)CC1` [2R,4S], the “effect on plasma corticosterone (FIG. 1)” value (plasma corticosterone; 4 h) is reported as “reduce corticosterone”, the “Corticosteroid Levels (mean ± SEM)” value (plasma corticosterone; single oral 50 mg/kg) is reported as 226 ± 30.1 ng/mL and the “Corticosteroid Levels (mean ± SEM)” value (plasma corticosterone; single oral 100 mg/kg) is reported as 196 ± 17.2 ng/mL. For the same compound, the “Corticosteroid Levels (mean ± SEM), time course” value (plasma corticosterone; single oral 200 mg/kg, 4 h) was 191 ± 14 ng/mL, the “Corticosteroid Levels (mean ± SEM)” value (plasma corticosterone; single oral 200 mg/kg) was 217 ± 25.8 ng/mL and the “Corticosteroid Levels (mean ± SEM), time course” value (plasma corticosterone; single oral 200 mg/kg, 8 h) was 206 ± 13 ng/mL. The “Corticosteroid Levels (mean ± SEM), time course” value (plasma corticosterone; single oral 200 mg/kg, 12 h) was 175 ± 9 ng/mL, the “Corticosteroid Levels (mean ± SEM), time course” value (plasma corticosterone; single oral 200 mg/kg, 16 h) was 171 ± 9 ng/mL and the “Corticosteroid Levels (mean ± SEM), time course” value (plasma corticosterone; single oral 200 mg/kg, 20 h) was 169 ± 7 ng/mL. For the same compound, the “Corticosteroid Levels (mean ± SEM), time course” value (plasma corticosterone; single oral 200 mg/kg, 24 h) was 182 ± 10 ng/mL, the “Corticosteroid Levels (mean ± SEM)” value (plasma corticosterone; single oral 400 mg/kg) was 192 ± 11.6 ng/mL and the “Corticosteroid Levels (mean ± SEM)” value (plasma corticosterone; single oral 600 mg/kg) was 167 ± 6.8 ng/mL. It also gave an MIC (Candida tropicalis; DSM11951, 48 h) of 0.125 µg/mL (≈ 0.235 µM), an MIC (Candida tropicalis; DSM11952, DSM strain 11952, 48 h, read-out: MIC) of 4 µg/mL (≈ 7.53 µM) and an MIC (Candida tropicalis; DSM11953, 48 h) of 0.125 µg/mL (≈ 0.235 µM). For the same compound, the IC50 (P450 3A) was 0.79 µM, the MIC (Candida kefyr) was 0.03 µg/mL (≈ 0.0565 µM) and the IC50 [1] was 69 µM. For the same compound, the “Testosterone levels (mean ± SEM)” value (testosterone levels; single oral 50 mg/kg) was 2.5 ± 0.5 nmol/L, the “Testosterone levels (mean ± SEM)” value (testosterone levels; single oral 100 mg/kg) was 1.3 ± 0.2 nmol/L and the “Testosterone levels (mean ± SEM), time course” value (testosterone levels; single oral 200 mg/kg, 4 h) was 3.4 ± 0.5 nmol/L. The “Testosterone levels (mean ± SEM)” value (testosterone levels; single oral 200 mg/kg) was 1.4 ± 0.4 nmol/L, the “Testosterone levels (mean ± SEM), time course” value (testosterone levels; single oral 200 mg/kg, 8 h) was 8.6 ± 2.0 nmol/L and the “Testosterone levels (mean ± SEM), time course” value (testosterone levels; single oral 200 mg/kg, 12 h) was 5.6 ± 1.1 nmol/L. For the same compound, the “Testosterone levels (mean ± SEM), time course” value (testosterone levels; single oral 200 mg/kg, 16 h) was 5.5 ± 0.9 nmol/L, the “Testosterone levels (mean ± SEM), time course” value (testosterone levels; single oral 200 mg/kg, 20 h) was 5.2 ± 1.1 nmol/L and the “Testosterone levels (mean ± SEM), time course” value (testosterone levels; single oral 200 mg/kg, 24 h) was 6.0 ± 1.0 nmol/L. The “Testosterone levels (mean ± SEM)” value (testosterone levels; single oral 400 mg/kg) was 0.7 ± 0.2 nmol/L, the “Testosterone levels (mean ± SEM)” value (testosterone levels; single oral 600 mg/kg) was 1.6 ± 0.3 nmol/L and the MIC (Candida albicans; DSM11225, DSM strain 11225, 48 h) was less than 0.015 µg/mL. It also gave an MIC (Candida albicans; DSM11943, DSM strain 11943, 48 h) of less than 0.015 µg/mL, an MIC (Candida albicans; DSM11944, DSM strain 11944, 48 h) of less than 0.015 µg/mL and an MIC (Candida albicans; DSM11945, DSM strain 11945, 48 h) of 0.03 µg/mL (≈ 0.0565 µM). It also gave an MIC (Candida albicans; DSM11948, DSM strain 11948, 48 h) of less than 0.015 µg/mL, an MIC (Candida albicans; DSM11949, DSM strain 11949, 48 h) of 0.25 µg/mL (≈ 0.47 µM) and an MIC (Candida albicans; strain 98-St-00799, 48 h) of less than 0.015 µg/mL. For the same compound, the IC50 (P450 4A) was less than 100 µM, the MIC (Candida glabrata; DSM11226, DSM strain 11226, 48 h) was 0.5 µg/mL (≈ 0.941 µM) and the MIC (Candida glabrata; DSM11950, DSM strain 11950, 48 h) was 0.25 µg/mL (≈ 0.47 µM). The IC50 (P450 2C6) was 11.2 µM, the “AUC 0-12” value [2, 4] was 1543 ± 231 µg·min/mL and the Cmax [2, 4] was 4770 ± 550 ng/mL. The “T ½” value [2, 4] was 2.63 ± 0.317 h, the “AUC 0-12” value [2, 5] was 820 ± 142 µg·min/mL and the Cmax [2, 5] was 3400 ± 440 ng/mL. For the same compound, the “T ½” value [2, 5] was 1.62 ± 0.13 h, the MIC (Cryptococcus neoformans; DSM11959, DSM strain 11959, 48 h) was 0.03 µg/mL (≈ 0.0565 µM) and the MIC (Cryptococcus neoformans; DSM11960, DSM strain 11960, 48 h) was 0.125 µg/mL (≈ 0.235 µM). For the same compound, the “total plasma concentration required to inhibit intrahepatic CYP7A” value [3] was “approximately 1 microM; also recorded: approximately 0.5 microg/mL”, the MIC (Candida parapsilosis; DSM05784, DSM strain 05784, 48 h) was 0.06 µg/mL (≈ 0.113 µM) and the MIC (Candida parapsilosis; DSM11224, DSM strain 11224, 48 h) was 0.06 µg/mL (≈ 0.113 µM). For the same compound, the MIC (Issatchenkia orientalis; DSM11956, DSM strain 11956, 48 h) was 0.5 µg/mL (≈ 0.941 µM), the MIC (Issatchenkia orientalis; DSM11958, DSM strain 11958, 48 h) was 2 µg/mL (≈ 3.76 µM) and the MIC (Saccharomyces cerevisiae) was 0.25 µg/mL (≈ 0.47 µM). For the same compound, the “Cholesterol Levels (mean ± SEM)” value (cholesterol levels; 4 h) was 85.1 ± 7 mg/dL, the “Cholesterol Levels (mean ± SEM)” value (cholesterol levels; 8 h) was 85.1 ± 5.4 mg/dL and the “Cholesterol Levels (mean ± SEM)” value (cholesterol levels; 12 h) was 77.3 ± 1.9 mg/dL. For the same compound, the “Cholesterol Levels (mean ± SEM)” value (cholesterol levels; 16 h) was 77.3 ± 4.6 mg/dL, the “Cholesterol Levels (mean ± SEM)” value (cholesterol levels; 20 h) was 69.6 ± 2.7 mg/dL and the “Cholesterol Levels (mean ± SEM)” value (cholesterol levels; 24 h) was 69.6 ± 1.5 mg/dL. For the same compound, the MIC (Candida guilliermondii) was 0.25 µg/mL (≈ 0.47 µM).
